The values that follow come from patent publication US20060276394A1, “METHODS AND COMPOSITIONS FOR TREATING NEUROLOGICAL DISORDERS” (WYETH, priority 2002, published 2006).

“Also recorded” adds a separate entry of the source.

The conditions of data set [1]: cited from earlier work.
In a further data set the test system is IGFBP-2 mRNA. In words: transcriptional profiling of amygdala of drug-treated rats. In kind it is in vivo. The following applies: rat amygdala. An excerpt:
In the short-term 3 day treatment, it is possible that the drugs might exert their antidepressant effects through decreasing IGFBP-2 expression, which would increase bioavailability of IGF-I. The long-term treatment is of equivalent magnitude but in the opposite direction. This may represent a compensatory mechanism in response to the short-term drug effects.

The test system of the next data set is Balb/C mice. In words: mouse elevated zero maze (EZM). The data set is classed as in vivo. The method, then: (§1) To assess the anxiolytic activity of NBI-31772, mice receiving intraventricular administration of NBI-31772 were tested in an elevated zero maze (EZM) or in a four-plate appratus (FPT). NBI-31722 (availabe from Calbiochem/EMD Biosciences, Inc. of San Diego, Calif.) was administered in a volume of 2 μl. Balb/C mice were used for the elevated zero maze and Swiss-Webster mice were used for the four-plate test. One-way analysis of variance (ANOVA) was performed on behavioral data to determine effects of test compound treatments, followed by Least Significant Difference Tests for a post hoc analysis. Data is presented as the mean±SEM.
These effects are similar to those seen with reference anxiolytic compounds chlordiazepoxide and diazepam (Ring et al., Psychopharmacology (Berl.), 2006, 185(2):218-225) and are indicative of anxiolytic-like activity of NBI-31772 in the EZM.

The subject of data set [2] is Swiss-Webster mice. In words: mouse four-plate test (FPT), punished crossings. In kind it is in vivo. On the procedure:
as §1
The four-plate apparatus consists of a Plexiglas chamber (18×25×16 cm) with a floor consisting of four rectangular metal plates (8×11 cm), which are separated from one another by a 4 mm gap. All four plates are wired to a shock generator (0.8 mA, 0.5 second; Med Associates Inc. of St. Albans, Vt.). In each experiment, mice are placed into the chamber and given an 18-second habituation period followed by a 1-minute test. During the test, the animal's innate motivation to explore the novel environment is suppressed by the delivery of a mild foot shock every time the animal moves from one plate to another (referred to as a ‘punished crossing’). Following each punished crossing, there is a 3-second time out where the mouse may cross the plates without receiving another shock. An experimenter blind to the dosing conditions administers shocks, and a computer records the total number of punished crossings an animal makes during the testing period. Clinically effective classes of anxiolytic compounds such as benzodiazepines, selective serotonin reuptake inhibitors, or 5-HT1A […] produce increases in punished crossings, which is indicative of anxiolytic-like activity.
In each study, mice were given a single icv injection or two icv injections of test compounds or vehicle 20 minutes prior to the test session, and the number of punished crosses during the 1-minute test was recorded. For experiments where 2 icv injections were given, an animal received an injection in both the left and right ventricles, with the second injection given immediately after the first injection. A 26-gauge Hamilton syringe with 3-mm needle was used for injections and the injection site was visualized by locating the middle of the invisible line that runs diagonally from the left eye to the right ear. Mice were housed individually during the interval between injections and behavioral testing.
The mouse four-plate test was performed and statistical analyses conducted as described in Example 9.
In these studies, NBI-31772 and JB1, an IGF-1R antagonist, were administered centrally (icv) with the two injections occurring sequentially. Compounds were administered 20 minutes prior to testing and the number of punished crosses during the 1-minute test was recorded.

The test system of data set [3] is Swiss-Webster mice. The data set is described as follows: mouse tail suspension test (TST). The following applies: for immobility: 20 minutes prior to testing. In kind it is in vivo. On the procedure:
To assess the on potential antidepressant effects of NBI-31772, Swiss-Webster mice were analyzed using the Tail Suspension Test (TST). In this test, mice were suspended upside down by taping their tails with adhesive laboratory tape (VWR International of West Chester, Pa.) to a flat metal bar connected to a strain gauge within a sound-attenuating chamber (Med Associates Inc. of St. Albans, Vt.). The bar is positioned such that a mouse is not able to grasp the top or the sides of the chamber. The total time spent immobile during a 6-minute test session is automatically recorded. Compounds that decrease the total immobility time compared to control animals are predicted to have antidepressant-like effects. In each study, mice were given a single icv injection of test compound or vehicle 20 minute prior to the test session. Mice were housed individually during the interval between injection and behavioral testing.
One-way analysis of variance (ANOVA) was performed on behavioral data to determine effects of NBI-31772 treatment, followed by Least Significant Difference Tests for a post hoc analysis. The data is presented as the mean±SEM. […] This decrease in immobility indicates antidepressant-like effects similar to that seen with IGF-1.
The mouse tail suspension test was performed and statistical analyses conducted as described in Example 11.

Another data set concerns IGFBP-1 to IGFBP-6. The following applies: cited from earlier work.
Another data set has as its target T1, IGFBP-2 (Homo sapiens, UniProt P18065).
T1 sequence (P18065 with tags, fused parts or gaps DUP19-21/R317C): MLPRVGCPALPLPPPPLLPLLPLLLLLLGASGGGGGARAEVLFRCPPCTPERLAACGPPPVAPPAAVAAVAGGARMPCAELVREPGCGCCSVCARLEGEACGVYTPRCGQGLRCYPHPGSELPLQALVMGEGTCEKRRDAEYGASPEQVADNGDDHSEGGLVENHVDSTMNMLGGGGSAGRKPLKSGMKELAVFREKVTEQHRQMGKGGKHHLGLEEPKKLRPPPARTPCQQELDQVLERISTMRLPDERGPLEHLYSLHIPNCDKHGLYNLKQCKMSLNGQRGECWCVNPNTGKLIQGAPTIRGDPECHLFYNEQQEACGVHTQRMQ
The following applies: cited from earlier work.

In a further data set the test system is fibroblast. The note with it: IGF-I released from binding protein complex; cited from earlier work.
In the next data set the test system is IGF-I mRNA. In words: microarray profiling of antidepressant-treated C6 glioma cell lines. In kind it is cell-based. The note with it: quiescent C6 glioma cell lines, 24 hours. The text has this: Glial cell cultures were used because they lack endogenous serotonin and norepinephrine transporter mechanisms. Thus, any transcriptional effects caused by the antidepressant drugs are due to actions beyond the level of the serotonin and norepinephrine receptors and respective transporters. […] Antidepressant drugs may therefore be acting on the glia, which produces the neurotrophic factor IGF-I, which acts in a juxtacrine manner to stimulate neurogenesis.

In another data set the test system is adult rat dentate gyrus. The data set is described as follows: BrdU-positive cell proliferation in adult rat dentate gyrus after chronic icv infusion. The data set is classed as in vivo. The note with it: 10 days icv via minipump, sacrifice Day 11. The method, then: Previous investigators have shown that IGF-1 administered either intracerebroventricular (icv) or systemically increases proliferation and survival, and (Aberg, et al, 2000; Lichtenwalner et al, 2000). Furthermore, systemic IGF promotes neuronal differentiation. The present study confirms and extends these previous findings. Rats were given IGF-1 for 10 days via a cannula attached to a semiosmotic minipump. On Day 11, animals were sacrificed and quantitative analysis was performed to determine the number of BrdU-positive cells as a measure of cell proliferation. A 66% increase in BrdU-positive cells per hippocampus compared to saline-infused animals was observed (FIG. 10).

The conditions of data set [4]: rats, subcutaneous deposition; cited from earlier work.

On to “complex of IGF-I and IGFBP-3: dimeric complex of IGF-I and IGFBP-3 in serum”, for which the serum half-life in data set [1] was 30 min.

Turning to `C[C@]12CC[C@H]3[C@@H](CC[C@@H]4C[C@@](O)(C(F)(F)F)CC[C@@H]43)[C@@H]1CC[C@@H]2C(=O)CO` [GMA-839], the entries for the “expression of IGFBP-2 mRNA compared to vehicle alone” value in the data set with IGFBP-2 mRNA (3 day treatment) and in the data set with IGFBP-2 mRNA (14 day treatment) were “decreased expression” and “increased expression”, respectively.

As for `O=C(O)c1cc2cc(O)c(O)cc2c(C(=O)c2ccc(O)c(O)c2)n1` [NBI-31772], the “increase in % time in the open arms compared to the vehicle group” value stood at 100% with Balb/C mice (0.3 μg icv), 100% with Balb/C mice (1 μg icv), 81% in the data set with Balb/C mice (3 μg icv) and 119% in the data set on Balb/C mice (10 μg icv). Further, the “% time spent in the open arms of the maze” value with Balb/C mice (0.1-10 μg, icv, 20 minutes prior to testing) is reported as “dose-dependent increase”. The “increase in punished crossings” value amounted to 22% in the data set with Swiss-Webster mice [2] (10 μg icv) and 32% in the data set on Swiss-Webster mice [2] (30 μg icv). The “increase in punished crossings compared to vehicle group” value with Swiss-Webster mice [2] (30 μg icv, two sequential icv injections study) stood at 24%. In addition, the “seizures, percentage of animals” value in the data set on Swiss-Webster mice [2] (56 μg icv) is 20%; in the data set on Swiss-Webster mice [2] (100 μg icv), 40%. Further, the punished crossings result in the data set on Swiss-Webster mice [2] (3.0-30 μg, icv) is listed as “dose-dependent increase”; in the data set with Swiss-Webster mice [2] (higher doses 56 and 100 μg icv, not used for analysis) it was “an increase in punished crossings was seen”. For the same compound, the results for the decrease in immobility in the data set with Swiss-Webster mice [3] (3 μg icv), in the data set on Swiss-Webster mice [3] (10 μg icv) and in the data set on Swiss-Webster mice [3] (30 μg icv) were 32%, 35% and 38%, respectively. In addition, the immobility entry in the data set with Swiss-Webster mice [3] (0.3-30 μg icv) was “dose-dependent decrease”. Further, in the data set on IGFBP-1 to IGFBP-6, the “dissociation of IGF-I from its binding protein complex” value is given as “dissociates”. Further, the “inhibition of 125I IGF-I binding / interaction of IGF-I with IGFBP-1 to 6” value with IGFBP-1 to IGFBP-6 is “inhibits; also recorded: dose-dependent inhibition”. The “activity toward IGFBP-2 compared to the other five IGFBPs” value at IGFBP-2 is reported as “highest activity”. Besides, the “biological activity of the released IGF-I” value in the data set with fibroblast is reported as “biologically active”.

In the case of `O=C1CC2(CCCC2)CC(=O)N1CCCCN1CCN(c2ncccn2)CC1` [Buspirone], the figures for the “expression of IGFBP-2 mRNA compared to vehicle alone” value with IGFBP-2 mRNA (3 day treatment) and in the data set on IGFBP-2 mRNA (14 day treatment) were “decreased expression” and “increased expression”, respectively.

In the case of `CNCCC(Oc1ccc(C(F)(F)F)cc1)c1ccccc1` (stereo not shown) [fluoxetine], the “expression of IGF-I mRNA” value with IGF-I mRNA is reported as “increased expression”.

In the case of “IGF-1: recombinant human IGF-1, insulin-like growth factor, available from Bachem Biosciences”, the “increase in punished crossings from vehicle” value with Swiss-Webster mice [2] (0.01 μg dose, central administration) is recorded as 32%. Moreover, the “effects in the four-plate test (FIG. 13)” value in the data set with Swiss-Webster mice [2] (0.1 μg) is on record as “anxiolytic-like effects”. Moreover, in the data set with Swiss-Webster mice [2] (0.03-1.0 μg, central administration 20 minutes prior to testing), the punished crossings entry is “significant overall effect”. In addition, the “decrease in immobility from vehicle” value in the data set with Swiss-Webster mice [3] (10 μg dose) came out at 33%. The immobility result with Swiss-Webster mice [3] (1-10 μg) is on record as “dose-dependent decrease”. Besides, the “increase in BrdU-positive cells per hippocampus compared to saline-infused animals” value in the data set on adult rat dentate gyrus is 66%. In addition, in the data set with IGFBP-1 to IGFBP-6, the “inhibition of 125I IGF-I binding / interaction of IGF-I with IGFBP-1 to 6” value is “dose-dependent inhibition”. Besides, the serum half-life in data set [1] was 10 min. In addition, in [4], the “concentrations in the CNS relative to those in the serum” value is “about 0.5%” and the “plasma concentrations at which uptake into CSF reached a plateau” value was “above 150 ng/ml”.

Take `COc1ccc(C(CN(C)C)C2(O)CCCCC2)cc1` (stereo not shown) [venlafaxine]: in the data set with IGF-I mRNA, the “expression of IGF-I mRNA” value is listed as “increased expression”.

With `CNCCCN1c2ccccc2CCc2ccccc21` [desipramine], the “expression of IGF-I mRNA” value with IGF-I mRNA is listed as “increased expression”.

Turning to `Fc1ccc([C@@H]2CCNC[C@H]2COc2ccc3c(c2)OCO3)cc1` [Paroxetine], the “expression of IGFBP-2 mRNA compared to vehicle alone” value is on record as “decreased expression” in the data set with IGFBP-2 mRNA (3 day treatment) and “increased expression” in the data set with IGFBP-2 mRNA (14 day treatment).
